Reference: ChEMBL document CHEMBL3885861, “Open TG-GATES”

Organism: Rattus norvegicus
Assay: Open TG-GATES - Regimen: Single
Type: toxicity, organism-based, Sprague-Dawley
Set-up: regimen Single, gender Male, age 6 weeks
Conditions: in vivo, po, 1 mg/kg, route gavage, dose level Low; for Bas / Eos / Fbg / Hb / Ht / Lym / MCHC / MCV / Mono / Neu / Plat / RBC / Ret / WBC: tissue Blood; for KIDNEY_TOTAL: tissue Kidney; for LIVER: tissue Liver; for ALT / AST / BUN / CRE / Ca / Cl / DBIL / GLC / IP / K / LDH / Na / PL / RALB / TBIL / TC / TP / gamma-GTP: tissue Plasma

In the case of C[C@@H]1C[C@H]2[C@@H]3CCC4=CC(=O)C=C[C@]4(C)[C@@]3(F)[C@@H](O)C[C@]2(C)[C@@]1(O)C(=O)CO [DEXAMETHASONE], the Bas (3 h) is reported as 0%, the Eos (3 h) is reported as 0.4% and the Fbg (3 h) is reported as 254 mg/dL. It also gave a Hb (3 h) of 13.2 g/dL, a Ht (3 h) of 40.3% and a Lym (3 h) of 67%. For the same compound, the MCHC (3 h) was 32.7%, the MCV (3 h) was 64 fL and the Mono (3 h) was 3.4%. For the same compound, the Neu (3 h) was 29.2%, the Plat (3 h) was 115.4 x10_4/uL and the RBC (3 h) was 630 x10_4/ul. For the same compound, the Ret (3 h) was 8.3%, the WBC (3 h) was 45.1 x10_2/uL and the KIDNEY_TOTAL (3 h) was 0.7 g. For the same compound, the LIVER (3 h) was 11.2 g, the ALT (3 h) was 43.2 IU/L and the AST (3 h) was 72 IU/L. The BUN (3 h) was 17 mg/dL, the CRE (3 h) was 0.4 mg/dL and the Ca (3 h) was 11.2 mg/dL. For the same compound, the Cl (3 h) was 102.2 meq/L, the DBIL (3 h) was 0.01 mg/dL and the GLC (3 h) was 192.6 mg/dL. It also gave an IP (3 h) of 12 mg/dL, a K (3 h) of 4 meq/L and an LDH (3 h) of 100.6 IU/L. For the same compound, the Na (3 h) was 142.2 meq/L, the PL (3 h) was 172 mg/dL and the RALB (3 h) was 4.3 g/dL. It also gave a TBIL (3 h) of 0.042 mg/dL, a TC (3 h) of 102 mg/dL and a TP (3 h) of 6.2 g/dL. The gamma-GTP (3 h) was 1 IU/L, the TERMINAL_BW (6 h) was 204.4 g and the Bas (6 h) was 0%. It also gave an Eos (6 h) of 0.2%, a Fbg (6 h) of 250.2 mg/dL and a Hb (6 h) of 13.1 g/dL. The Ht (6 h) was 40.4%, the Lym (6 h) was 59% and the MCHC (6 h) was 32.6%. For the same compound, the MCV (6 h) was 64.5 fL, the Mono (6 h) was 3.2% and the Neu (6 h) was 37.2%. For the same compound, the Plat (6 h) was 113.5 x10_4/uL, the RBC (6 h) was 627 x10_4/ul and the Ret (6 h) was 6.5%. The WBC (6 h) was 28.2 x10_2/uL, the KIDNEY_TOTAL (6 h) was 0.5 g and the LIVER (6 h) was 10.8 g. For the same compound, the ALT (6 h) was 39 IU/L, the AST (6 h) was 73.8 IU/L and the BUN (6 h) was 17.4 mg/dL. The CRE (6 h) was 0.4 mg/dL, the Ca (6 h) was 10.9 mg/dL and the Cl (6 h) was 102.8 meq/L. The DBIL (6 h) was 0.008 mg/dL, the GLC (6 h) was 215.8 mg/dL and the IP (6 h) was 8.2 mg/dL. It also gave a K (6 h) of 4.3 meq/L, an LDH (6 h) of 91.4 IU/L and a Na (6 h) of 138.6 meq/L. It also gave a PL (6 h) of 179.4 mg/dL, an RALB (6 h) of 4.4 g/dL and a TBIL (6 h) of 0.038 mg/dL. The TC (6 h) was 124.4 mg/dL, the TP (6 h) was 6.3 g/dL and the gamma-GTP (6 h) was 0 IU/L. For the same compound, the TERMINAL_BW (9 h) was 198.1 g, the Bas (9 h) was 0% and the Eos (9 h) was 0.2%. The Fbg (9 h) was 263.4 mg/dL, the Hb (9 h) was 13.4 g/dL and the Ht (9 h) was 40.9%. The Lym (9 h) was 55.8%, the MCHC (9 h) was 32.7% and the MCV (9 h) was 64.7 fL. The Mono (9 h) was 1.4%, the Neu (9 h) was 42.4% and the Plat (9 h) was 127.4 x10_4/uL. For the same compound, the RBC (9 h) was 633 x10_4/ul, the Ret (9 h) was 7.3% and the WBC (9 h) was 28.3 x10_2/uL. It also gave a KIDNEY_TOTAL (9 h) of 0.5 g, an LIVER (9 h) of 10.7 g and an ALT (9 h) of 38.8 IU/L. For the same compound, the AST (9 h) was 76.6 IU/L, the BUN (9 h) was 19.2 mg/dL and the CRE (9 h) was 0.4 mg/dL. The Ca (9 h) was 10.6 mg/dL, the Cl (9 h) was 102 meq/L and the DBIL (9 h) was 0.006 mg/dL. For the same compound, the GLC (9 h) was 217 mg/dL, the IP (9 h) was 7.8 mg/dL and the K (9 h) was 4.4 meq/L. The LDH (9 h) was 96.2 IU/L, the Na (9 h) was 138 meq/L and the PL (9 h) was 181.6 mg/dL. For the same compound, the RALB (9 h) was 4.7 g/dL, the TBIL (9 h) was 0.038 mg/dL and the TC (9 h) was 126 mg/dL. It also gave a TP (9 h) of 6.8 g/dL, a gamma-GTP (9 h) of 0.8 IU/L and a TERMINAL_BW (24 h) of 210.9 g. For the same compound, the Bas (24 h) was 0%, the Eos (24 h) was 0.8% and the Fbg (24 h) was 239.6 mg/dL. It also gave a Hb (24 h) of 13.8 g/dL, a Ht (24 h) of 41.6% and a Lym (24 h) of 61.4%. The MCHC (24 h) was 33.1%, the MCV (24 h) was 64.9 fL and the Mono (24 h) was 4.8%. The Neu (24 h) was 33%, the Plat (24 h) was 122.7 x10_4/uL and the RBC (24 h) was 642.2 x10_4/ul. The Ret (24 h) was 5.8%, the WBC (24 h) was 73.8 x10_2/uL and the KIDNEY_TOTAL (24 h) was 0.5 g. It also gave an LIVER (24 h) of 12 g, an ALT (24 h) of 35.4 IU/L and an AST (24 h) of 79.8 IU/L. It also gave a BUN (24 h) of 16.4 mg/dL, a CRE (24 h) of 0.4 mg/dL and a Ca (24 h) of 10.9 mg/dL. It also gave a Cl (24 h) of 99.8 meq/L, a DBIL (24 h) of 0.016 mg/dL and a GLC (24 h) of 191.8 mg/dL. It also gave an IP (24 h) of 8 mg/dL, a K (24 h) of 4.9 meq/L and an LDH (24 h) of 110.2 IU/L. The Na (24 h) was 139.2 meq/L, the PL (24 h) was 219.2 mg/dL and the RALB (24 h) was 4.6 g/dL. For the same compound, the TBIL (24 h) was 0.046 mg/dL, the TC (24 h) was 104.2 mg/dL and the TP (24 h) was 6.4 g/dL. For the same compound, the gamma-GTP (24 h) was 0 IU/L.
